We go through nine compounds from the supplement of paper PMC4862054.

What all share (experiment): normalised viability (% of control), CellTiter-Blue; higher = more viable cells (about 100 = DMSO control)
Common to all, as to conditions: incubation time: 72 h

Assay [1] deals with MDA-MB-453. The protocol:
(§1)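 DSRT, CellTiter-Blue viability, 72 h incubation. Signal is normalised to DMSO and benzethonium chloride controls. Value is the normalised response at dose 6.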

Assay [2] has as its system DU-4475. On the procedure: as §1
Assay [3] deals with CAL-148. On the procedure: as §1
The test system of assay [4] is HDQ-P1. The protocol: as §1
Assay [5] relates to CAL-51. The protocol:
as §1

For assay [6], the system named is CAL-85-1. The protocol:
as §1

Assay [7] relates to MDA-MB-453. On the procedure:
(§2)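 DSRT, CellTiter-Blue viability, 72 h incubation. Signal is normalised to DMSO and benzethonium chloride controls. Value is the normalised response at dose 9.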
The source holds these as a separate data set.

The subject of assay [8] is DU-4475. On the procedure:
as §2
The source holds these as a separate data set.

Assay [9] deals with CAL-148. On the procedure:
as §2
The source holds these as a separate data set.

For assay [10], the system named is HDQ-P1. On the procedure:
as §2
The source holds these as a separate data set.

Assay [11] relates to CAL-51. The protocol: as §2
This is another data set of the same source.

Assay [12] deals with CAL-85-1. The protocol:
as §2
This is another data set of the same source.

Turning to `COc1ccc(S(=O)(=O)Nc2cccnc2Nc2ccc(O)cc2)cc1` [ABT-751] (300 nM), the normalised viability in the assay with MDA-MB-453 [1] turned out to be 39.5%; in the assay with DU-4475 [2], 80.7%; in the assay on CAL-148 [3], 98.6%; with HDQ-P1 [4], 55.8%; in the assay with CAL-51 [5], 94.3%; in the assay with CAL-85-1 [6], 58.7%.

Regarding `Cc1cc(Nc2nc(N[C@@H](C)c3ncc(F)cn3)ncc2Cl)[nH]n1` [AZD1480] (30 nM), the normalised viability in the assay on MDA-MB-453 [1] came out at 117%; in the assay on DU-4475 [2], 109%; in the assay with CAL-148 [3] it was 103%; in the assay on HDQ-P1 [4], 78.1%; in the assay with CAL-51 [5] it was 113%; in the assay on CAL-85-1 [6] it was 91.3%.

On to `CNC(=O)c1ccccc1Sc1ccc2c(/C=C/c3ccccn3)n[nH]c2c1` [Axitinib] (300 nM), for which the normalised viability with MDA-MB-453 [1] stood at 96.8%; in the assay with DU-4475 [2], 103%; in the assay on CAL-148 [3], 94%; in the assay on HDQ-P1 [4], 40.1%; in the assay with CAL-51 [5], 96.1%; in the assay with CAL-85-1 [6], 83.6%.

For `CC(O)(CS(=O)(=O)c1ccc(F)cc1)C(=O)Nc1ccc(C#N)c(C(F)(F)F)c1` (centres undefined) [Bicalutamide] (300 nM), the normalised viability came out at 110% in the assay with MDA-MB-453 [1]; 93.6% in the assay on DU-4475 [2]; 107% in the assay with CAL-148 [3]; 55% with HDQ-P1 [4]; 108% in the assay on CAL-51 [5]; 95% with CAL-85-1 [6].

For `CCNC(=O)CCC/C=C\C[C@@H]1[C@@H](/C=C/[C@@H](O)CCc2ccccc2)[C@H](O)C[C@@H]1O` [Bimatoprost] (165 nM), the normalised viability in the assay on MDA-MB-453 [1] is 102%; in the assay on DU-4475 [2], 97.6%; with CAL-148 [3], 94.6%; with HDQ-P1 [4] it was 81.4%; in the assay with CAL-51 [5], 116%; in the assay on CAL-85-1 [6], 96.4%.

As for `COc1cc(Nc2c(C#N)cnc3cc(OCCCN4CCN(C)CC4)c(OC)cc23)c(Cl)cc1Cl` [Bosutinib] (300 nM), the normalised viability is 88.2% with MDA-MB-453 [1]; 99.7% in the assay on DU-4475 [2]; 82.2% in the assay on CAL-148 [3]; 68.5% in the assay on HDQ-P1 [4]; 117% with CAL-51 [5]; 108% in the assay on CAL-85-1 [6].

Turning to `CCN(CC)CCCC(C)Nc1ccnc2cc(Cl)ccc12` (centres undefined) [Chloroquine] (29.7 nM), the normalised viability in the assay with MDA-MB-453 [1] turned out to be 98.8%; in the assay with DU-4475 [2], 116%; with CAL-148 [3] it was 89.9%; with HDQ-P1 [4] it was 123%; in the assay with CAL-51 [5], 88.5%; in the assay on CAL-85-1 [6] it was 92.7%.

In the case of `CCN(CC)CCCC(C)Nc1ccnc2cc(Cl)ccc12` (centres undefined) [Chloroquine] (990 nM), the normalised viability with MDA-MB-453 [7] amounted to 98.4%; with DU-4475 [8], 115%; with CAL-148 [9], 84.8%; in the assay with HDQ-P1 [10], 126%; with CAL-51 [11], 89.5%; in the assay on CAL-85-1 [12], 91.3%.

Consider `CN(Cc1cnc2nc(N)nc(N)c2n1)c1ccc(C(=O)N[C@@H](CCC(=O)O)C(=O)O)cc1` [Methotrexate] (10000 nM), for which the normalised viability in the assay with MDA-MB-453 [7] worked out at 90%; with DU-4475 [8], 102%; in the assay with CAL-148 [9], 69.1%; with HDQ-P1 [10], 99.7%; in the assay with CAL-51 [11], 39.2%; in the assay on CAL-85-1 [12], 65.3%.
